Values joined by “and” are separate entries in the source; they are usually repeats but may differ in a detail not shown here. Equal values may be shown once.
Test system: human maximum recommended daily dose, FDA database
Assay: DSSTox (FDAMDD) FDA Maximum (Recommended) Daily Dose Database
Conditions: stronger effect = lower value
Method in brief: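 MRDD values come from clinical trials with daily oral dosing, usually for 3–12 months, for the average adult, in mg/day converted to mg/kg-bw/day assuming 60 kg. Antineoplastic mg/m2 doses are divided by 37. Activity score maps log10(1/MRDD mmol) onto 1–100.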

[1] = TherapeuticCategory: antibacterial
[2] = TherapeuticCategory: diagnostic aid
[3] = TherapeuticCategory: antiemetic
[4] = TherapeuticCategory: antineoplastic
[5] = TherapeuticCategory: CNS stimulant
[6] = TherapeuticCategory: anthelmintic

## CNC(C)[C@@H]1CC[C@@H](N)[C@@H](O[C@H]2[C@H](O)[C@@H](O[C@H]3OC[C@](C)(O)[C@H](NC)[C@H]3O)[C@H](N)C[C@@H]2N)O1 (stereo partly specified)
[1]
  maximum recommended daily dose (mmol/kg-bw/day): 0.00628

## Cc1cc(-c2ccc(N=Nc3ccc4c(S(=O)(=O)O)cc(S(=O)(=O)O)c(N)c4c3O)c(C)c2)ccc1N=Nc1ccc2c(S(=O)(=O)O)cc(S(=O)(=O)O)c(N)c2c1O
[2]
  maximum recommended daily dose (mmol/kg-bw/day): 0.000347

## CC(=O)O[C@H]1C[C@H](O[C@H]2[C@@H](O)C[C@H](O[C@H]3[C@@H](O)C[C@H](O[C@H]4CC[C@@]5(C)[C@H](CC[C@@H]6[C@@H]5C[C@@H](O)[C@]5(C)[C@@H](C7=CC(=O)OC7)CC[C@]65O)C4)O[C@@H]3C)O[C@@H]2C)O[C@H](C)[C@H]1O[C@@H]1O[C@H](CO)[C@@H](O)[C@H](O)[C@H]1O
TherapeuticCategory: cardiotonic
  maximum recommended daily dose (mmol/kg-bw/day): 3.38e-05

## CC(C)(C)c1ccc(CN2CCN(C(c3ccccc3)c3ccc(Cl)cc3)CC2)cc1 (stereo unspecified)
[3]
  maximum recommended daily dose (mmol/kg-bw/day): 0.00577

## O=[N+]([O-])c1cc(Cl)cc(-c2cc(Cl)cc([N+](=O)[O-])c2O)c1O
TherapeuticCategory: none
  maximum recommended daily dose (mmol/kg-bw/day): 0.0058

## CCN(CC)C(=O)C1CN2CCc3cc(OC)c(OC)cc3C2CC1OC(C)=O (stereo unspecified)
TherapeuticCategory: antipsychotic, antiemeic
  maximum recommended daily dose (mmol/kg-bw/day): 0.00103

## CCc1cc(C(N)=S)ccn1
[1]
  maximum recommended daily dose (mmol/kg-bw/day): 0.1

## C[C@]12C=CC(=O)C=C1CC[C@@H]1[C@@H]2[C@@H](O)C[C@@]2(C)[C@H]1CC[C@]2(O)C(=O)COC(=O)CCCc1ccc(N(CCCl)CCCl)cc1
[4]
  maximum recommended daily dose (mmol/kg-bw/day): 0.00515

## N[C@@H](C(=O)N[C@@H]1C(=O)N2C(C(=O)O)=C(CSc3cn[nH]n3)CS[C@H]12)c1ccc(O)cc1
[1]
  maximum recommended daily dose (mmol/kg-bw/day): 0.0361

## CC(CN(C)C)CN1c2ccccc2Sc2ccccc21 (stereo unspecified)
TherapeuticCategory: antipruritic
  maximum recommended daily dose (mmol/kg-bw/day): 0.0056

## CO[C@H]1[C@@H](O)[C@H](N)[C@@H](O[C@H]2O[C@H]([C@H](C)N)CC[C@H]2N)[C@H](O)[C@@H]1N(C)C(=O)CN
[1]
  maximum recommended daily dose (mmol/kg-bw/day): 0.0164

## Clc1ccc(COC(Cn2ccnc2)c2ccc(Cl)cc2Cl)c(Cl)c1 (stereo unspecified)
TherapeuticCategory: topical antifungal
  maximum recommended daily dose (mmol/kg-bw/day): 0.144

## CC(=O)Nc1ccccc1
TherapeuticCategory: antipyretic, analgesic
  maximum recommended daily dose (mmol/kg-bw/day): 0.037

## O=C(O)c1cc(O)c2c(c1)[C@H]([C@H]1c3cc(C(=O)O)cc(O)c3C(=O)c3c(O[C@@H]4O[C@H](CO)[C@@H](O)[C@H](O)[C@H]4O)cccc31)c1cccc(O[C@@H]3O[C@H](CO)[C@@H](O)[C@H](O)[C@H]3O)c1C2=O
TherapeuticCategory: cathartic
  maximum recommended daily dose (mmol/kg-bw/day): 0.0194

## CC(=O)Oc1ccc(C(c2ccc(OC(C)=O)cc2)c2ccccn2)cc1
TherapeuticCategory: cathartic
  maximum recommended daily dose (mmol/kg-bw/day): 0.000692

## O=NN(CCCl)C(=O)NC1CCCCC1
[4]
  maximum recommended daily dose (mmol/kg-bw/day): 0.015

## OC(c1ccccc1)(c1ccccc1)C1CCCCN1 (stereo unspecified)
[5]
  maximum recommended daily dose (mmol/kg-bw/day): 0.000374

## CC(C)NCC(O)c1ccc(O)c(O)c1 (stereo unspecified)
TherapeuticCategory: bronchodilator
  maximum recommended daily dose (mmol/kg-bw/day): 0.000791

## COc1c(C)c2c(c(O)c1C/C=C(\C)CCC(=O)OCCN1CCOCC1)C(=O)OC2
[4]
  maximum recommended daily dose (mmol/kg-bw/day): 0.277

## C(=C\c1ccccc1)/CN1CCN(C(c2ccccc2)c2ccccc2)CC1
TherapeuticCategory: antihistaminic, peripheral vasodilator
  maximum recommended daily dose (mmol/kg-bw/day): 0.0102

## O=C(CCBr)N1CCN(C(=O)CCBr)CC1
[4]
  maximum recommended daily dose (mmol/kg-bw/day): 0.00843

## C=C1c2cccc(O)c2C(O)=C2C(=O)[C@]3(O)C(O)=C(C(N)=O)C(=O)[C@@H](N(C)C)[C@@H]3[C@@H](O)[C@H]12
[1]
  maximum recommended daily dose (mmol/kg-bw/day): 0.0339

## C[C@@]12CCCCC[C@@H](Cc3ccc(O)cc31)[C@@H]2N
TherapeuticCategory: narcotic analgesic
  maximum recommended daily dose (mmol/kg-bw/day): 0.000681

## O=C1CN2CCOC2(c2ccccc2F)c2cc(Cl)ccc2N1CCO (stereo unspecified)
TherapeuticCategory: anxiolytic
  maximum recommended daily dose (mmol/kg-bw/day): 0.000531

## CCN(CC)CCSC(=O)C(c1ccccc1)c1ccccc1
TherapeuticCategory: anticholinergic, smooth muscle relaxant
  maximum recommended daily dose (mmol/kg-bw/day): 0.0153

## COc1cc(NS(=O)(=O)c2ccc(N)cc2)nc(OC)n1
[1]
  maximum recommended daily dose (mmol/kg-bw/day): 0.107

## Nc1nc2c(ncn2COCCO)c(=O)[nH]1
TherapeuticCategory: antiviral
  maximum recommended daily dose (mmol/kg-bw/day): 0.0591

## CC(=O)c1ccc2c(c1)N(CCCN1CCN(CCO)CC1)c1ccccc1S2
TherapeuticCategory: antipsychotic
  maximum recommended daily dose (mmol/kg-bw/day): 0.0243

## CN1c2ccccc2Sc2ccc(CC(=O)O)cc21
TherapeuticCategory: anti inflammatory
  maximum recommended daily dose (mmol/kg-bw/day): 0.0461

## COc1ccc(OC)c(C(O)CNC(=O)CN)c1 (stereo unspecified)
TherapeuticCategory: adrenergic, antihypotensive
  maximum recommended daily dose (mmol/kg-bw/day): 0.000983

## Oc1ccc(Cl)cc1Cc1cc(Cl)ccc1O
[6]
  maximum recommended daily dose (mmol/kg-bw/day): 0.372

## NCc1ccccc1CC(=O)N[C@@H]1C(=O)N2C(C(=O)O)=C(CSc3nnnn3CC(=O)O)CS[C@H]12
[1]
  maximum recommended daily dose (mmol/kg-bw/day): 0.0641

## N[C@@H]1C[C@H]1c1ccccc1
TherapeuticCategory: antidepressant
  maximum recommended daily dose (mmol/kg-bw/day): 0.00751

## OCC(O)CO
[2]
  maximum recommended daily dose (mmol/kg-bw/day): 10.8

## NC(=O)C1CCN(CCCN2c3ccccc3Sc3ccc(Cl)cc32)CC1
[3]
  maximum recommended daily dose (mmol/kg-bw/day): 0.000622

## C=CC1=C(C(=O)O)N2C(=O)[C@@H](NC(=O)/C(=N\OCC(=O)O)c3csc(N)n3)[C@H]2SC1
[1]
  maximum recommended daily dose (mmol/kg-bw/day): 0.0293

## C[N+](C)(CCOc1ccccc1)Cc1ccccc1
[6]
  maximum recommended daily dose (mmol/kg-bw/day): 0.163 and 0.094

## Cn1c(=O)c2c(ncn2C)n(C)c1=O
[5]
  maximum recommended daily dose (mmol/kg-bw/day): 0.0515

## CC(C)(C)NCC(O)c1ccc(O)c(CO)c1 (stereo unspecified)
TherapeuticCategory: bronchodilator, tocolytic
  maximum recommended daily dose (mmol/kg-bw/day): 0.00223

## CN(Cc1cnc2nc(N)nc(N)c2n1)c1ccc(C(=O)N[C@@H](CCC(=O)O)C(=O)O)cc1
TherapeuticCategory: antineoplastic, antirheumatic
  maximum recommended daily dose (mmol/kg-bw/day): 0.0011

## COC(=O)Nc1nc2ccc(C(=O)c3ccc(F)cc3)cc2[nH]1
[6]
  maximum recommended daily dose (mmol/kg-bw/day): 0.00533

## NCCS
TherapeuticCategory: antidote to acetaminophen
  maximum recommended daily dose (mmol/kg-bw/day): 0.432

## Oc1cc(O)c2c(c1)O[C@H](c1ccc(O)c(O)c1)[C@@H](O)C2
TherapeuticCategory: hepatoprotectant, antidiarrheal
  maximum recommended daily dose (mmol/kg-bw/day): 0.115

## CO[C@@]1(NC(=O)C2SC(=C(C(N)=O)C(=O)O)S2)C(=O)N2C(C(=O)O)=C(CSc3nnnn3C)CS[C@@H]21 (stereo partly specified)
[1]
  maximum recommended daily dose (mmol/kg-bw/day): 0.116

## O=C1C(=O)c2ccccc2C(O)=C1C1CCC(c2ccc(Cl)cc2)CC1 (stereo unspecified)
TherapeuticCategory: antiprotozoal, antimalarial, antifungal
  maximum recommended daily dose (mmol/kg-bw/day): 0.102

## CCCN(CC)C(CC)C(=O)Nc1c(C)cccc1C (stereo unspecified)
TherapeuticCategory: local anesthetic
  maximum recommended daily dose (mmol/kg-bw/day): 0.0241

## CC(=O)OCC(=O)[C@@]1(O)[C@H](C)C[C@H]2[C@@H]3CCC4=CC(=O)C=C[C@]4(C)[C@@]3(F)C(O)C[C@@]21C (stereo partly specified)
TherapeuticCategory: glucocorticoid, anti inflammatory
  maximum recommended daily dose (mmol/kg-bw/day): 0.000345

## CC1NCCOC1c1ccccc1 (stereo unspecified)
TherapeuticCategory: anorexic, CNS stimulant
  maximum recommended daily dose (mmol/kg-bw/day): 0.00705

## C[C@H](N)[C@H](O)c1cccc(O)c1
TherapeuticCategory: adrenergic
  maximum recommended daily dose (mmol/kg-bw/day): 0.0498

## CN1CCCN=C1/C=C/c1cccs1
[6]
  maximum recommended daily dose (mmol/kg-bw/day): 0.0969

## CCCN(CCC)S(=O)(=O)c1ccc(C(=O)O)cc1
TherapeuticCategory: uricosuric
  maximum recommended daily dose (mmol/kg-bw/day): 0.0585
